What was measured:
Assay type in all cases: cell-based, human
SUZ12, Sox2 = test: SUZ12 and Sox2 expression after DOT1L/H3K79me2 inhibitor (FIG. 21A); settings: 10 uM
[1] = system: cyclin-dependent kinase inhibitors, cyclins and CDK4 in DLD-1; test: Cell cycle gene expression by real-time PCR
Description: A. GSEA analysis identifies proliferation pathways have positive correlation with IL-22. B. Cell proliferation maker Ki67 was detected by FACS. C. H^3 Thymidine Incorporation was used to detect the function of IL-22 in cell proliferation. D. Cell number was counted after stimulated with IL-22. E. Cells isolated from colon cancer tissue (Tumor cells and Leukocytes) were stimulated with a-CD3 and […] for 3 days, and supernatant mixed with or without anti-IL-22 antibody was co-cultured with DLD1 cells for 24 h to test cell proliferation. F. Cell cyclin-dependent kinase and kinase inhibitors were analyzed by Real-Time PCR.
The identification of target genes for IL-22 is essential for the determination of the mechanism by which it promotes proliferation in colon cancer cells. As such, the relative mRNA levels in DLD-1 colon cancer cell line was examined by real time quantitative PCR. As expected, IL-22 reduced the expression of the cyclin-dependent kinase inhibitors: p16 (CDKN2A), p18 (CDKN2C), p19 (CDKN2D), p21 (CDKN1A), p27 (CDKN1B), p53 and p57 (CDKN1C).
The mRNAs were quantified by real-time RT-PCR. SYBR Green Master Mix was used to detect fluorescence. Relative expression was calculated according to the Ct value with normalization to GAPDH.

ALDH1 = test: ALDH activity by FACS (aldefluor fluorescence); settings: DLD-1, HT29 and two primary colon cancer cell lines, IL-22 24 hours
Description: (A), IL-22 is expressed in colon cancer tissues. IL-22 mRNA was detected by real-time PCR in colon cancer tissues and peripheral blood. *P<0.05 compared to blood, 20 colon cancer patients. (B-D), Endogenous IL-22 promotes colon carcinogenesis. Single cells (10^7) isolated from colon cancer tissue were mixed with anti-IL-22 antibody or control mAb, and then subcutaneously injected to NSG mice. Tumor growth (B), incidence (C), and animal survival (D) are shown. (P<0.05 for all, n=5 per group). (E-G) Recombinant IL-22 promotes colon carcinogenesis. DLD-1 colon cancer cells (10^5) were pre-incubated with IL-22 (20 ng/ml) for 1 hour, and then subcutaneously injected to NSG mice. […] ALDH activity was determined by FACS based on aldefluor fluorescence. […] Results are expressed as fold changes of ALDH expression. […] The mRNA of stem cell core gene was detected by real-time PCR (K) and proteins were detected by western blotting (L, M). […]
(A, B) IL-22 is expressed by immune cells in colon cancer tissues. Different cell populations were sorted from colon cancer tissues and IL-22 expression was measured by real time PCR. […] IL-22 was detected via ELISA. […] IL-22 was detected with ELISA (D) or intracellular staining (E). […] IL-22 mRNA was detected by real time PCR (F) and protein by ELISA (G). […] IL-22 expression was quantified with real-time PCR in the migrated and non-migrated cells. […]

Compound: CC(C)N(CCCNC(=O)Nc1ccc(C(C)(C)C)cc1)C[C@H]1O[C@@H](n2ccc3c(N)ncnc32)[C@H](O)[C@@H]1O [EPZ004777]
- SUZ12 expression (SUZ12, Sox2): no effect
- Sox2 expression (SUZ12, Sox2): reduce

Compound: IL-22: recombinant IL-22 (R&D systems), cytokine interleukin-22
- mRNA levels of cyclin A1, D1, D3, E1, E2 and CDK4 ([1]; DLD-1): increased
- expression of cyclin-dependent kinase inhibitors p16, p18, p19, p21, p27, p53 and p57 ([1]; DLD-1, mRNA): reduced
- aldehyde dehydrogenase (ALDH1) activity (ALDH1): increased
